In ChEMBL document CHEMBL5726928, “Aryl, heteroaryl, and heterocyclic compounds for treatment of medical disorders” (2019):
pIC50: −log10 of the molar value.

Target: Complement factor D (Homo sapiens, UniProt P00746)
Assay: Human Factor D Assay: Human Factor D (purified from human serum, Complement Technology, Inc.) at 80 nM final concentration was incubated with test compound at various concentrations for 5 minutes at room temperature in 50 mM Tris, 1M NaCl, pH 7.5. A synthetic substrate Z-L-Lys-SBzl and DTNB (Ellman's reagent) are added to final concentrations of 100 μM each. […] IC50 values are calculated by nonlinear regression of complement Factor D reaction rates as a function of test compound concentration.

Complement factor D, sequence (P00746 whole entry): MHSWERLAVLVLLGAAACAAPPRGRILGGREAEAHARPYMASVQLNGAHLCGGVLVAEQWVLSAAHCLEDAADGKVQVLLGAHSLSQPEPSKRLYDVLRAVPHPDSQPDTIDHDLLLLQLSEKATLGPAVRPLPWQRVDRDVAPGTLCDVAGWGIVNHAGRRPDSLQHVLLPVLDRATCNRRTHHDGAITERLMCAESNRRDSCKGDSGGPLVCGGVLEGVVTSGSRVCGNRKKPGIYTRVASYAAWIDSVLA

Cc1cc2ncc(-c3ccc4c(c3)c(C(N)=O)nn4CC(=O)N3C[C@H](F)C[C@H]3C(=O)Nc3cccc(OC(F)(F)F)c3F)cn2n1
pIC50: > 6.00

CC(=O)c1nn(CC(=O)N2C[C@H](F)C[C@H]2C(=O)Nc2ccn(CCC(F)(F)F)n2)c2ccc(-c3cnc(C)nc3)cc12
pIC50: > 6.00

CC(=O)c1nn(CC(=O)N2[C@H](C(=O)NCc3cccc(Cl)c3F)C[C@@]3(C)C[C@@H]23)c2ccc(-c3cnc(C)nc3)cc12
pIC50: > 6.00

CC(=O)c1nn(CC(=O)N2C[C@H](F)C[C@H]2C(=O)NC[C@@H]2CC2(Cl)Cl)c2ccc(-c3cnc(C)nc3)cc12
pIC50: > 6.00

CC(=O)c1nn(CC(=O)N2C[C@H](F)C[C@H]2C(=O)Nc2cccc(OC(F)(F)F)c2C#N)c2ccc(-c3cnc(C)nc3)cc12
pIC50: > 6.00

CC(=O)c1nn(CC(=O)N2C[C@H](F)C[C@H]2C(=O)N[C@@H]2C[C@H]2c2ccccc2Cl)c2ccc(-c3cnc(C)nc3)cc12
pIC50: > 6.00

CC(=O)c1nn(CC(=O)N2C[C@H](F)C[C@H]2C(=O)Nc2cccnn2)c2ccc(-c3cnc4cc(C)nn4c3)cc12
pIC50: > 6.00

CC(=O)c1nn(CC(=O)N2C[C@H](F)C[C@H]2C(=O)NC[C@H]2CC2(Cl)Cl)c2ccc(-c3cnc(C)nc3)cc12
pIC50: > 6.00

CC(=O)c1nn(CC(=O)N2[C@@H]3C[C@@H]3C[C@H]2C(=O)NC/C(F)=C(/C)c2ccccc2)c2ccc(-c3cnc(C)nc3)cc12
pIC50: > 6.00

CC(=O)c1nn(CC(=O)N2C[C@H](F)C[C@H]2C(=O)Nc2cccc(Br)n2)c2ccc(-c3cnc([S+](C)[O-])nc3)cc12 (stereo partly specified)
pIC50: > 6.00

CC(=O)c1nn(CC(=O)N2C[C@H](F)C[C@H]2C(=O)Nc2nn(CC(F)(F)F)cc2C)c2ccc(-c3cnc(C)nc3)cc12
pIC50: > 6.00

CC(=O)c1nn(CC(=O)N2C[C@H](F)C[C@H]2C(=O)N[C@H](C)[C@H]2CC2(Cl)Cl)c2ccc(-c3cnc(C)nc3)cc12
pIC50: > 6.00

CC(=O)c1nn(CC(=O)N2C[C@H](F)C[C@H]2C(=O)Nc2nc(Br)ccc2Cl)c2ccc(-c3cnc(C)nc3)cc12
pIC50: > 6.00

CC(=O)c1nn(CC(=O)N2[C@H](C(=O)NCC3CC3(Cl)Cl)C[C@@]3(C)C[C@@H]23)c2ccc(-c3cnc(C)nc3)cc12 (stereo partly specified)
pIC50: > 6.00

CC(=O)c1nn(CC(=O)N2[C@@H]3C[C@@H]3C[C@H]2C(=O)Nc2cccc(Br)n2)c2ccc(-c3cnc(NC(C)C)nc3)cc12
pIC50: > 6.00

CC(=O)c1nn(CC(=O)N2C[C@H](F)C[C@H]2C(=O)Nc2cccc(C)n2)c2ccc(-c3cnc(C)nc3)cc12
pIC50: > 6.00

CC(=O)c1nn(CC(=O)N2C[C@H](F)C[C@H]2C(=O)N[C@H]2C[C@@H]2c2ccccc2Cl)c2ccc(-c3cnc(C)nc3)cc12
pIC50: > 6.00

CC(=O)c1nn(CC(=O)N2C[C@H](F)C[C@H]2C(=O)Nc2cccc(OC(F)(F)F)n2)c2ccc(-c3cnc(N)nc3)cc12
pIC50: > 6.00

COc1ccc(Br)nc1NC(=O)[C@@H]1C[C@@H](F)CN1C(=O)Cn1nc(C(C)=O)c2cc(-c3cnc(C)nc3)ccc21
pIC50: > 6.00

CC(=O)c1nn(CC(=O)N2[C@H](C(=O)NCc3cccc(Cl)c3)C[C@@]3(C)C[C@@H]23)c2ccc(-c3cnc(C)nc3)cc12
pIC50: > 6.00

CC(=O)c1nn(CC(=O)N2[C@@H]3C[C@@H]3C[C@H]2C(=O)Nc2nc(Br)ccc2C)c2ccc(-c3cnc(C)nc3)cc12
pIC50: > 6.00

COCCNc1ncc(-c2ccc3c(c2)c(C(C)=O)cn3CC(=O)N2C[C@H](F)C[C@H]2C(=O)Nc2cccc(Br)n2)cn1
pIC50: > 6.00

CC(=O)c1nn(CC(=O)N2C[C@@](F)(CO)C[C@H]2C(=O)Nc2cccc(Br)n2)c2ccc(-c3cnc(C)nc3)cc12
pIC50: > 6.00

CC(=O)c1cn(CC(=O)N2C[C@H](F)C[C@H]2C(=O)Nc2cccc(Br)n2)c2ccc(-c3cnc4ccnn4c3)cc12
pIC50: > 6.00

CC(=O)c1nn(CC(=O)N2C[C@H](F)C[C@H]2C(=O)Nc2cccc(Br)n2)c2ccc(-c3nc4ccccc4[nH]3)cc12
pIC50: > 6.00

CC(=O)c1nn(CC(=O)N2C[C@H](F)C[C@H]2C(=O)Nc2cccc(Br)n2)c2ccc(-c3cnnc(C)c3)cc12
pIC50: > 6.00

CC(=O)c1nn(CC(=O)N2C[C@H](F)C[C@H]2C(=O)Nc2cccc(Br)c2)c2ccc(-c3cnc(C)nc3)cc12
pIC50: > 6.00

CC(=O)c1nn(CC(=O)N2C[C@H](F)C[C@H]2C(=O)Nc2ccc(F)c(Br)c2F)c2ccc(-c3cnc(C)nc3)cc12
pIC50: > 6.00

CCn1ccc(NC(=O)[C@@H]2C[C@@H](F)CN2C(=O)Cn2nc(C(C)=O)c3cc(-c4cnc(C)nc4)ccc32)n1
pIC50: > 6.00

COCCNc1ncc(-c2ccc3c(c2)c(C(C)=O)cn3CC(=O)N2[C@@H]3C[C@@H]3C[C@H]2C(=O)Nc2cccc(Br)n2)cn1
pIC50: > 6.00

CCOC(=O)Cc1ncc(-c2ccc3c(c2)c(C(C)=O)nn3CC(=O)N2C[C@H](F)C[C@H]2C(=O)Nc2nc(Br)ccc2C)cn1
pIC50: > 6.00
